Values of other authors, collected in the PKSmart pharmacokinetics tables (Seal et al. 2025).

Assay: Lombardo, Berellini, Obach 2018, Drug Metab Dispos 46:1466, doi 10.1124/dmd.118.082966
Settings: human; for MRT / Vd / clearance / half-life: in vivo, iv; for fraction unbound: plasma

Row | SMILES | MRT [h] | Vd [L/kg] | clearance [mL/min/kg] | half-life [h] | fraction unbound
1 | COc1cc2c(cc1OC)[C@H]1C[C@@H](OC(=O)C(N)C(C)C)[C@H](CC(C)C)CN1CC2 (some centres undefined) | 12.8 | 1.31 | 1.71 | 18 | 0.01
2 | Cc1onc(-c2c(Cl)cccc2Cl)c1C(=O)NC1C(=O)N2C(C(=O)O)C(C)(C)S[C@H]12 (some centres undefined) | 0.92 | 0.11 | 2 | 0.88 | –
3 | CN1C(=O)CC[C@H]1c1cccnc1 | 21 | 1.1 | 0.89 | 17 | –
4 | C=CC[N+]1([C@H]2C[C@H]3[C@@H]4CC[C@H]5C[C@H](O)[C@@H](N6CCOCC6)C[C@]5(C)[C@H]4CC[C@]3(C)[C@H]2OC(C)=O)CCCC1 | 0.95 | 0.21 | 3.7 | 1.6 | 0.54
5 | CC[C@H]1OC(=O)C(C)[C@@H](O[C@H]2C[C@@](C)(OC)[C@@H](O)[C@H](C)O2)[C@H](C)[C@@H](O[C@@H]2O[C@H](C)C[C@H](N(C)C)[C@H]2O)[C@](C)(OC)CC(C)C(=O)C(C)[C@@H](O)[C@]1(C)O (some centres undefined) | 3.4 | 1.5 | 7.3 | 2.8 | –
6 | CN(C)CCN(Cc1cccs1)c1ccccn1 | 2 | 3.3 | 28 | 1.6 | –
7 | O=P(O)(O)C(Cl)(Cl)P(=O)(O)O | 9.2 | 0.88 | 1.6 | 43.2 | 0.64
8 | C1COC(NC(C2CC2)C2CC2)=N1 | 10.6 | 4.5 | 7.1 | 8.3 | 0.9
9 | CC(C)NCC(O)c1cc(O)cc(O)c1 (centres undefined) | 7.14 | 6.03 | 14.1 | 6.41 | 0.9
10 | CCCCC(=O)N(Cc1ccc(-c2ccccc2-c2nnn[nH]2)cc1)C(C(=O)O)C(C)C (centres undefined) | 7.5 | 0.22 | 0.49 | 9.5 | 0.04
11 | CNC(=O)c1ccccc1Sc1ccc2c(/C=C/c3ccccn3)n[nH]c2c1 | – | – | 5 | 4.3 | 0.004
12 | C[C@@H](O)C1C(=O)N2C(C(=O)O)=C(SCCNC=N)C[C@H]12 (some centres undefined) | 1.3 | – | 3 | 0.95 | –
13 | Nc1nc2[nH]cc(CCc3ccc(C(=O)NC(CCC(=O)O)C(=O)O)cc3)c2c(=O)[nH]1 (centres undefined) | 1.92 | 0.15 | 1.3 | 1.85 | –
14 | CN1CCN(C(=O)OC2c3nccnc3C(=O)N2c2ccc(Cl)cn2)CC1 (centres undefined) | 6.6 | 1.3 | 3.3 | 5.2 | –
15 | Cc1ccc([C@@H]2O[C@H](CO)[C@@H](O)[C@H](O)[C@H]2O)cc1Cc1ccc(-c2ccc(F)cc2)s1 | 7.25 | 1.19 | 2.74 | 10.3 | 0.01
16 | C=C[C@]1(C)C[C@@H](OC(=O)CS[C@@H]2CC[C@@H](N)C[C@H]2O)[C@]2(C)[C@H](C)CC[C@]3(CCC(=O)[C@H]32)[C@@H](C)[C@@H]1O | 5.53 | 1.32 | 3.96 | 6.4 | 0.17
17 | CN1c2ccccc2[C@@H](NCCCCCCC(=O)O)c2ccc(Cl)cc2S1(=O)=O | 1.9 | 0.3 | 2.8 | 1.4 | –
18 | C[C@H]1O[C@@H](O[C@H]2[C@@H](O)C[C@H](O[C@H]3[C@@H](O)C[C@H](O[C@H]4CC[C@@]5(C)[C@H](CC[C@@H]6[C@@H]5C[C@@H](O)[C@]5(C)[C@@H](C7=CC(=O)OC7)CC[C@]65O)C4)O[C@@H]3C)O[C@@H]2C)C[C@H](O)[C@@H]1O | 40 | 4.1 | 1.7 | 38 | –
19 | CCC(=O)O[C@]1(C(=O)SCF)[C@H](C)C[C@H]2[C@@H]3C[C@H](F)C4=CC(=O)C=C[C@]4(C)[C@@]3(F)[C@@H](O)C[C@@]21C | 3.9 | 3.6 | 17 | 6 | 0.1
20 | O=C(O)C1C[C@@H](C2CCCCC2)CN1C(=O)CP(=O)(O)CCCCc1ccccc1 (some centres undefined) | 6.8 | 0.13 | 0.32 | 9.4 | –
21 | CC[C@@]1(O)C(=O)OCc2c1cc1n(c2=O)Cc2c-1nc1ccc(O)cc1c2[Si](C)(C)C(C)(C)C | 1.3 | 0.47 | 6 | 1.4 | –
22 | C#CCN(Cc1cc2c(=O)nc(C)[nH]c2cc1C)c1ccc(C(=O)NC(CCc2nnn[nH]2)C(=O)O)c(F)c1 (centres undefined) | 30.4 | 0.53 | 0.29 | 78.5 | 0.01
23 | NCCCCC(NC(CCc1ccccc1)C(=O)O)C(=O)N1CCCC1C(=O)O (centres undefined) | – | – | 1.2 | – | –

Row | SMILES | MRT [h] | Vd [L/kg] | clearance [mL/min/kg] | half-life [h] | fraction unbound
24 | O=C1NC(=O)C(c2ccccc2)(c2ccccc2)N1 | 17.6 | 0.43 | 0.37 | 16.8 | 0.13
25 | COC(=O)C[C@@](O)(CCCC(C)(C)O)C(=O)O[C@@H]1C(OC)=C[C@]23CCCN2CCc2cc4c(cc2[C@H]13)OCO4 | 10.2 | 1.8 | 2.96 | 9.8 | –
26 | CCN(CC)CCNc1ccc(CNC=O)c2sc3ccc(OC)cc3c(=O)c12 | 5.4 | 1.01 | 3.1 | 6.19 | –
27 | CC(=O)OCC1=C(C(=O)O)N2C(=O)C(NC(=O)CC#N)[C@H]2SC1 (some centres undefined) | 2.21 | 0.49 | 3.69 | 2.02 | –
28 | C[C@]12C[C@]3(O)O[C@@H](O1)[C@@]1(COC(=O)c4ccccc4)[C@@H]3C[C@]12O[C@@H]1O[C@H](CO)[C@@H](O)[C@H](O)[C@H]1O | – | – | – | – | 0.77
29 | CN(C)CCCOc1nn(Cc2ccccc2)c2ccccc12 | 11.4 | 1.53 | 2.28 | 8.1 | 0.8
30 | CNC[C@@H]1CC[C@@H](N)[C@@H](O[C@@H]2[C@H](O)[C@@H](O[C@H]3OC[C@](C)(O)[C@H](NC)[C@H]3O)[C@H](N)C[C@@H]2N)O1 | 2.4 | 0.15 | 1.1 | 2.1 | –
31 | CCCc1nn(C)c2c(=O)[nH]c(-c3cc(S(=O)(=O)N4CCN(C)CC4)ccc3OCC)nc12 | 2.5 | 1.36 | – | 2.2 | –
32 | Nc1nc(Cl)nc2c1ncn2[C@H]1C[C@H](O)[C@@H](CO)O1 | 9.2 | 7.7 | 14 | 16 | 0.79
33 | O=C1C[C@@H](c2ccccc2)Oc2cc(O)cc(O)c21 | 0.47 | 0.8 | 27 | 0.7 | –
34 | CNC(=O)C(c1ccccc1)N1CCc2cc(OC)c(OC)cc2[C@@H]1CCc1ccc(C(F)(F)F)cc1 (some centres undefined) | 15.9 | 9.75 | 10.2 | 34.3 | –
35 | CC(=O)OC1=C2C(C)[C@@H](OC(=O)C(O)C(NC(=O)c3ccccc3)c3ccccc3)C[C@@](O)([C@@H](OC(=O)c3ccccc3)[C@@H]3[C@]4(OC(C)=O)CO[C@@H]4C[C@H](O)[C@@]3(C)C1=O)C2(C)C (some centres undefined) | 7.8 | 3 | 6.4 | 11 | 0.12
36 | Nc1cc(N2CCCCC2)nc(N)[n+]1[O-] | 1.3 | 0.9 | 11.5 | 1.5 | –
37 | Cc1ccc(S(=O)(=O)NC(=O)NN2C[C@H]3CCC[C@@H]3C2)cc1 | 17.5 | 0.43 | 0.41 | 16.4 | 0.03
38 | CC(S)C(=O)NCC(=O)O (centres undefined) | 15.7 | 1.39 | 1.48 | 55 | 0.45
39 | CN(C)CCN1C(=O)c2cccc3cc(N)cc(c23)C1=O | 6.34 | 7.33 | 19.3 | 4.78 | –
40 | CCC(=O)NCC[C@@H]1CCc2ccc3c(c21)CCO3 | 1.3 | 1.05 | 13.1 | 1.9 | 0.2
41 | Cc1c[nH]c2c(O)cc3c(c12)[C@H](CCl)CN3C(=O)c1cc2cc(NC(=O)Nc3ccc4[nH]c(C(=O)N5C[C@@H](CCl)c6c5cc(O)c5[nH]cc(C)c65)cc4c3)ccc2[nH]1 | 1.7 | 0.05 | 0.5 | 1.6 | –
42 | COc1ccccc1Oc1c(NS(=O)(=O)c2ccc(C)cn2)nc(-c2ccncc2)nc1OC | 8.8 | 0.27 | 0.52 | 7.2 | –
43 | OCCN(CCc1c[nH]c2ccccc12)Cc1ccc(/C=C/C(O)=NO)cc1 | 4.78 | 2.17 | 7.6 | 12.4 | 0.23
44 | O=C(O)C1=C(CSc2nnnn2CS(=O)(=O)O)CS[C@@H]2C(NC(=O)C(O)c3ccccc3)C(=O)N12 (some centres undefined) | 5.8 | 0.14 | 0.38 | 5.1 | 0.02
45 | CCCc1nc2c(C)cc(-c3nc4ccccc4n3C)cc2n1Cc1ccc(-c2ccccc2C(=O)O)cc1 | 11 | 5.3 | 8.4 | 20 | –
46 | CCCCC1=NC2(CCCC2)C(=O)N1Cc1ccc(-c2ccccc2-c2nnn[nH]2)cc1 | 6.8 | 0.94 | 2.3 | 14 | 0.1

Row | SMILES | MRT [h] | Vd [L/kg] | clearance [mL/min/kg] | half-life [h] | fraction unbound
47 | O=C1CCC(N2C(=O)c3ccccc3C2=O)C(=O)N1 (centres undefined) | 4.3 | 0.95 | 3.4 | 4.7 | 0.4
48 | NC(=O)C1CC[C@@H]2CN1C(=O)N2OS(=O)(=O)O (some centres undefined) | 1.4 | 0.24 | 2.76 | 1.7 | 0.93
49 | CN(C)[C@@H](c1cccc(O)c1)[C@H]1CCCC[C@H]1O | – | – | 2.2 | 3.85 | –
50 | COC1=C(C(=O)O)N2C(=O)C(NC(=O)C(N)C3=CCC=CC3)[C@H]2SC1 (some centres undefined) | 0.59 | 0.17 | 4.78 | 0.74 | 0.1
51 | Cc1cn[nH]c1 | 7.94 | 0.35 | 0.73 | 4.42 | –
52 | COc1ccc(Cl)cc1C(=O)NCCc1ccc(S(=O)(=O)NC(=O)NC2CCCCC2)cc1 | 1.6 | 0.08 | – | 2.2 | 0.021
53 | C[C@@]12CCCCC[C@@H](Cc3ccc(O)cc31)[C@@H]2N | 4.6 | 5.6 | 27.5 | 3.9 | 0.08
54 | CN(C)CCCN1c2ccccc2Sc2ccc(Cl)cc21 | 10 | 10 | 16 | 11 | –
55 | COc1ccc([C@@H]2CNC(=O)C2)cc1OC1CCCC1 | 1.77 | 0.67 | 6.3 | 7 | 0.11
56 | N#Cc1c(N2C[C@@H]3NCCO[C@H]3C2)c(F)cc2c(=O)c(C(=O)O)cn(C3CC3)c12 | 4.11 | 1.42 | 5.75 | 13.4 | 0.75
57 | CN(CCC(=O)/C=C/c1ccc(O)cc1)CCc1ccc2c(c1)OCO2 | 0.05 | 2.13 | 713 | 0.1 | –
58 | CCCNc1nc(NCCC)nc(N(C)OC)n1 | 3.04 | 2.17 | 11.9 | 5.61 | –
59 | CN(C)CCCN1c2ccccc2Sc2ccccc21 | 9.6 | 8.1 | 14 | 7.9 | 0.11
60 | Cc1ccccc1N1C(=O)c2cc(S(N)(=O)=O)c(Cl)cc2NC1C (centres undefined) | 19 | 1.6 | 1.4 | 20 | –
61 | COc1c(C)cc2c(c1O)[C@@H]1[C@@H]3Cc4c(OC(C)=O)c(C)c5c(c4[C@H](CNC(=O)/C=C/c4cccc(C(F)(F)F)c4)N3[C@@H](O)[C@H](C2)N1C)OCO5 | 17.5 | 12.6 | 12 | 22.2 | –
62 | CC1(C)O[C@@H]2[C@@H](CO[C@@]3(COS(N)(=O)=O)OC(C)(C)O[C@@H]23)O1 | 48.7 | 0.8 | 0.27 | 34.8 | 0.72
63 | CC(=O)Nc1ccc(C2=NNC(=O)CC2C)cc1 (centres undefined) | 88 | 2.38 | 0.45 | 70 | 0.4
64 | Cc1[nH]c(=O)c(C#N)cc1-c1ccncc1 | 0.67 | 0.25 | 6.2 | 0.8 | –
65 | CC1(C)O[C@@H]2C[C@H]3[C@@H]4C[C@H](F)C5=CC(=O)C=C[C@@]5(C)[C@H]4[C@@H](O)C[C@]3(C)[C@]2(C(=O)CO)O1 | 1.89 | 1.08 | 9.5 | 1.68 | –
66 | CC(O)C(=O)Nc1c(I)c(C(=O)NC(CO)CO)c(I)c(C(=O)NC(CO)CO)c1I (centres undefined) | 2.5 | 0.28 | 1.9 | 2.1 | 1
67 | Cc1cnc(C(=O)NC2CCCCC/C=C\[C@@H]3C[C@@]3(C(=O)NS(=O)(=O)C3CC3)NC(=O)C3C[C@@H](Oc4nc5ccccc5c5ccccc45)CN3C2=O)cn1 (some centres undefined) | 3.96 | 1.37 | 5.74 | 8.71 | 0.022
68 | C[C@H](O)C1C(=O)N2C(C(=O)O)=C(S[C@H]3CN[C@H](CNS(N)(=O)=O)C3)[C@@H](C)C12 (some centres undefined) | – | – | – | 1.2 | 0.92
69 | CCCCN1CCCC1C(=O)Nc1c(C)cc(C)cc1C (centres undefined) | 1.51 | 1.73 | 19.2 | 1.58 | –
